ChEMBL document CHEMBL5380857, “Discovery of Potent, Selective, and Orally Bioavailable Small-Molecule Inhibitors of CDK8 for the Treatment of Cancer” (J Med Chem, 2023)

Key:
CDK8/Cyclin C = CDK8/Cyclin C (Homo sapiens, UniProt P49336); test: Inhibition of His tagged human recombinant CDK8/Cyclin C expressed in baculovirus expression system incubated for 15 mins by FRET-based LanthaScreen binding competition assay
[1] = target: Glycogen synthase kinase-3 beta (Homo sapiens, UniProt P49841)
Description: Binding affinity to GSK3B (unknown origin) assessed as dissociation constant by competitive binding assay

[2] = target: Dual specificity protein kinase CLK1 (Homo sapiens, UniProt P49759); test: Binding affinity to CLK1 (unknown origin) assessed as dissociation constant by competitive binding assay
[3] = Volume of distribution in CD-1 mouse at 5 mg/kg, po or 1 mg/kg, iv administered as single dose and measured for 24 hrs by LC-MS/MS analysis; type: ADME, organism-based; settings: in vivo
[4] = target: Dual specificity tyrosine-phosphorylation-regulated kinase 1B (Homo sapiens, UniProt Q9Y463); test: Binding affinity to DYRK1B (unknown origin) assessed as dissociation constant by competitive binding assay
[5] = Metabolic stability in rat liver microsomes assessed as intrinsic clearance at 1 uM preincubated for 10 mins followed by NADPH addition and measured for 60 mins by LC-MS/MS analysis; type: ADME, Microsome; settings: read-out: CLH
[6] = target: Phosphatidylinositol 3-kinase catalytic subunit type 3 (Homo sapiens, UniProt Q8NEB9); test: Binding affinity to VPS34 (unknown origin) assessed as dissociation constant by competitive binding assay
[7] = target: Dual specificity protein kinase CLK2 (Homo sapiens, UniProt P49760); test: Binding affinity to CLK2 (unknown origin) assessed as dissociation constant by competitive binding assay
[8] = Metabolic stability in mouse liver microsomes assessed as intrinsic clearance at 1 uM preincubated for 10 mins followed by NADPH addition and measured for 60 mins by LC-MS/MS analysis; type: ADME, Microsome; settings: read-out: CLH
[9] = Metabolic stability in human liver microsomes assessed as intrinsic clearance at 1 uM preincubated for 10 mins followed by NADPH addition and measured for 60 mins by LC-MS/MS analysis; type: ADME, Microsome; settings: read-out: CLH
[10] = target: Glycogen synthase kinase-3 alpha (Homo sapiens, UniProt P49840); test: Binding affinity to GSK3A (unknown origin) assessed as dissociation constant by competitive binding assay
[11] = target: T1, Serine/threonine-protein kinase LATS2 (Homo sapiens, UniProt Q9NRM7); test: Binding affinity to LATS2 (unknown origin) assessed as dissociation constant by competitive binding assay
T1 sequence (Q9NRM7 whole entry): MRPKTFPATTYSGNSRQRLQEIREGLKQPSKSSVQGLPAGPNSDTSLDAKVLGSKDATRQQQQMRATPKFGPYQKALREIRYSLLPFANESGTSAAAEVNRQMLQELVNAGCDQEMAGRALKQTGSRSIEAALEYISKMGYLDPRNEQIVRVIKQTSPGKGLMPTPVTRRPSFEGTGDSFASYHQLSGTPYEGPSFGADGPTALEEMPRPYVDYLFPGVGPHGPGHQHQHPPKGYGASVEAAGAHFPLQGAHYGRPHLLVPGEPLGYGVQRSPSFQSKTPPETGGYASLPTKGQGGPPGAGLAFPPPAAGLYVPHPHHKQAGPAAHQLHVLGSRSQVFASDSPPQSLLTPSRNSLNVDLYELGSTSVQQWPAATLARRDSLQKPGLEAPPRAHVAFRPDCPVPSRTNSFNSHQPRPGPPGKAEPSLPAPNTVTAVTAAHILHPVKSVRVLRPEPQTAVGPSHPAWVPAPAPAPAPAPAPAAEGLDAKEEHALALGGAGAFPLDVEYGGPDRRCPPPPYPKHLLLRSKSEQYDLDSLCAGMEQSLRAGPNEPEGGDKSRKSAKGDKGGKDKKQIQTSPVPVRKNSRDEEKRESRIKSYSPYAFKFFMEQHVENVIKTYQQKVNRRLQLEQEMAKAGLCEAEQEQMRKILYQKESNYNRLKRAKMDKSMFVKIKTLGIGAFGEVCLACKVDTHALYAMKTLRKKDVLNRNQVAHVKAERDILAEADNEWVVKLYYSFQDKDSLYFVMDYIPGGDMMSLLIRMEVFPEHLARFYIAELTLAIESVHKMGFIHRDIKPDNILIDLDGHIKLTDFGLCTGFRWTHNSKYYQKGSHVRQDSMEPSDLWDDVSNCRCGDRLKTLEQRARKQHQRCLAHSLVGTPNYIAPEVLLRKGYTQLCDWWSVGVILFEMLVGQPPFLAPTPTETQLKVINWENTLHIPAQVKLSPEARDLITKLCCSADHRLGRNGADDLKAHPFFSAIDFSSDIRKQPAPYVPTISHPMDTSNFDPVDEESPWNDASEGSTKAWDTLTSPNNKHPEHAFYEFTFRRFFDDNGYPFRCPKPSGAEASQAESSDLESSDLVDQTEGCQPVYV

MV4-11 [12] = test: Antiproliferative activity against human MV4-11 cells assessed as inhibition of cell growth incubated for 10 days and replacement with fresh media with compounds on day 5 by CTG assay; type: functional, cell-based
[13] = Bioavailability in CD-1 mouse at 5 mg/kg, po or 1 mg/kg, iv administered as single dose and measured for 24 hrs by LC-MS/MS analysis; type: ADME, organism-based; settings: in vivo
MV4-11 [14] = test: Antitumor activity against human MV4-11 cells xenografted in BALB/c nude mouse assessed as tumor growth inhibition at 60 mg/kg, po qd administered by gavage for 17 days and measured 3 times per week by caliper method relative to control; type: functional; settings: MV4-11, 408 h, time 17 day, read-out: TGI

Sequence of Dual specificity protein kinase CLK1 (P49759 whole entry): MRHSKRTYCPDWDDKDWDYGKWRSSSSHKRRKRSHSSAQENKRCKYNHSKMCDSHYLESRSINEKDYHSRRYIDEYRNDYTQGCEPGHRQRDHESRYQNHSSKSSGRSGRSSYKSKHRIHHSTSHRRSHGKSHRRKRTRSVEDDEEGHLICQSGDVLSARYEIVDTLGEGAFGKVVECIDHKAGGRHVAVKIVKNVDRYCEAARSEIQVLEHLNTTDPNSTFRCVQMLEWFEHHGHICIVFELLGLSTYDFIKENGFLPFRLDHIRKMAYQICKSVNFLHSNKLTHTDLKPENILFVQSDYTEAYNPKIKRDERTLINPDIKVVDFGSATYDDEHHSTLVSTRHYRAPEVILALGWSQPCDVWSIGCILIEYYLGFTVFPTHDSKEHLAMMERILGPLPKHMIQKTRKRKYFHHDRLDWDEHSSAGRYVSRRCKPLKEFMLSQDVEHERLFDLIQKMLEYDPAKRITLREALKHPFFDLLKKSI
Sequence of Phosphatidylinositol 3-kinase catalytic subunit type 3 (Q8NEB9 whole entry): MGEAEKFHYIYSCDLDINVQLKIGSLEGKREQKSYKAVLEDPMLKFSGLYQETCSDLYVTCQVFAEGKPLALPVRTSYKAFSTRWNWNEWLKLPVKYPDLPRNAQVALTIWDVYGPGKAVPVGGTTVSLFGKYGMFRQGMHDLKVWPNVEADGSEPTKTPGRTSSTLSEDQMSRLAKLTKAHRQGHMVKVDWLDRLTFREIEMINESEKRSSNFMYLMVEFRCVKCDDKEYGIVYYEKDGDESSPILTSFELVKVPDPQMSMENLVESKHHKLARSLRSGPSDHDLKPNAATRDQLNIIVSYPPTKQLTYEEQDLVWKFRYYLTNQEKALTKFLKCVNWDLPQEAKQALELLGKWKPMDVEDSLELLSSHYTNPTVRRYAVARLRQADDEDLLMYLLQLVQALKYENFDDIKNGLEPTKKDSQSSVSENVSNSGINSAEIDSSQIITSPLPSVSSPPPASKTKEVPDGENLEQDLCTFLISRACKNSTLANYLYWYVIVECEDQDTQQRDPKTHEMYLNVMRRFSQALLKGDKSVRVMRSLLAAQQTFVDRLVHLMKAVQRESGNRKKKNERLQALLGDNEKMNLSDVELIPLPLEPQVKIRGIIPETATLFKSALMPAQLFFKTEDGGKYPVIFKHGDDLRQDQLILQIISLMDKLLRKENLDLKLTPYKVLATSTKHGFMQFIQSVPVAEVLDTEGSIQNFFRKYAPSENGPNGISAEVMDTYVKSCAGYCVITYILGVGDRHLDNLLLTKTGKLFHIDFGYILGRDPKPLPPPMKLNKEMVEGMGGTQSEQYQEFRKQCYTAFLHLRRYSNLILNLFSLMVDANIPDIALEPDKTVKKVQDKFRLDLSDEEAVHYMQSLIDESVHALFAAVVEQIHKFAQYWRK
Sequence of Glycogen synthase kinase-3 alpha (P49840 whole entry): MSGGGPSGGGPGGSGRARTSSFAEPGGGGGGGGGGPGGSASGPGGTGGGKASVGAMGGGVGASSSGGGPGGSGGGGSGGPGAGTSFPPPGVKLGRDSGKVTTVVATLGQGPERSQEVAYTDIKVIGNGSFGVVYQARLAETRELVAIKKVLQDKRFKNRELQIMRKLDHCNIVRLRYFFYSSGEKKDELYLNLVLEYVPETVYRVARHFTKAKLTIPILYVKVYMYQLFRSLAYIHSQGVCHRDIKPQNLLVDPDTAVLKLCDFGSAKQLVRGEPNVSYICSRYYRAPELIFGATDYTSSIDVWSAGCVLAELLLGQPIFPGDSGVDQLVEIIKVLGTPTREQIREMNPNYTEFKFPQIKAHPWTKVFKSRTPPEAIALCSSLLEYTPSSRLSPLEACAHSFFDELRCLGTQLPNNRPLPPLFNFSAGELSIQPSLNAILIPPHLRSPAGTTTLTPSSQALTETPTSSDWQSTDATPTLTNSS
Sequence of Dual specificity tyrosine-phosphorylation-regulated kinase 1B (Q9Y463 whole entry): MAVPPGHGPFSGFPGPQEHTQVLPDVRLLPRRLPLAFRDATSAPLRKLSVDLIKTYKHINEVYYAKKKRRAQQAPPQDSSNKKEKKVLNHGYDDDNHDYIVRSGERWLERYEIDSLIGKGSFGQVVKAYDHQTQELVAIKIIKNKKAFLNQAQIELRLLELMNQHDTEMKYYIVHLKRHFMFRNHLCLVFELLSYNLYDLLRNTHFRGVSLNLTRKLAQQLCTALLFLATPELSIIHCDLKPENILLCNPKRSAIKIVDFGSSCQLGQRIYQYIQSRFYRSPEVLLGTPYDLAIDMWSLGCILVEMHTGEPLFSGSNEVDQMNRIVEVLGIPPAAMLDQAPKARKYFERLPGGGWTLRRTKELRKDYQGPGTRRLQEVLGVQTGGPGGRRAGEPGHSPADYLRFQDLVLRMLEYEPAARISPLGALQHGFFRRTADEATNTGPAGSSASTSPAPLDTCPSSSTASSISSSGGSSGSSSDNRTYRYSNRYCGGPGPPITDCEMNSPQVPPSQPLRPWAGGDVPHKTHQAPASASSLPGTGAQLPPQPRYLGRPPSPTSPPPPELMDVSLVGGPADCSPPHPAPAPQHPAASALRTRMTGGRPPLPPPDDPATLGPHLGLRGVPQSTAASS
Sequence of CDK8/Cyclin C (P49336 whole entry): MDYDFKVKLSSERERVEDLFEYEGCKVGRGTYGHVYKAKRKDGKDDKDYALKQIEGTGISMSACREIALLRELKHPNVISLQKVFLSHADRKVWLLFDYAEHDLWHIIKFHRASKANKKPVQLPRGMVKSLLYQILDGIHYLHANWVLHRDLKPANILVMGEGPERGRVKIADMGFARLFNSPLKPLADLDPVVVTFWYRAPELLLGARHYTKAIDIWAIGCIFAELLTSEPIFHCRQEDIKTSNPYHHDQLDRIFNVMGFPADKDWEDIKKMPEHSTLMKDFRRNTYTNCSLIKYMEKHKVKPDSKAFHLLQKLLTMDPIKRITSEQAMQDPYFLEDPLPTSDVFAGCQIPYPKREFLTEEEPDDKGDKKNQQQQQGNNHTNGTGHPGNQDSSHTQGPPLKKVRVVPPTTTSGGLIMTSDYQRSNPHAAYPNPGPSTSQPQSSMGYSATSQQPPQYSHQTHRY
Sequence of CDK8/Cyclin C (P24863 whole entry, further chain): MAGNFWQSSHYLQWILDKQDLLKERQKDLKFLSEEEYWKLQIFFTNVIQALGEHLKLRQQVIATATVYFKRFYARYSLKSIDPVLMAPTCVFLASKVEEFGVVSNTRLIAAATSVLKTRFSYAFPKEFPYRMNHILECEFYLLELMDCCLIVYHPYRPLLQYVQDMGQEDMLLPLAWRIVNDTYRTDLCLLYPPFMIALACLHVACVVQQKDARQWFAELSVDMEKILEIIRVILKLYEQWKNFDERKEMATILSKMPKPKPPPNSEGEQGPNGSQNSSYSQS
Sequence of Glycogen synthase kinase-3 beta (P49841 whole entry): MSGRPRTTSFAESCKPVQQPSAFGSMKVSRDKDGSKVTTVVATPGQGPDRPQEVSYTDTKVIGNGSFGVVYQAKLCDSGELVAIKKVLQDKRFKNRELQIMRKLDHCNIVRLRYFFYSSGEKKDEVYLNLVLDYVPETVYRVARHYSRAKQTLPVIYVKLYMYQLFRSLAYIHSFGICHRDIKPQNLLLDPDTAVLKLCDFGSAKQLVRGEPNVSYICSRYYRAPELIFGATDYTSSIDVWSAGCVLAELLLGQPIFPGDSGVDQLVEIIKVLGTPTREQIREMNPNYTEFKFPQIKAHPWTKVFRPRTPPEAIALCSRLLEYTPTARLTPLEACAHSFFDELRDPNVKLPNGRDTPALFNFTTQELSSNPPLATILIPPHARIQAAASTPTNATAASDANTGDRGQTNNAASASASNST
Sequence of Dual specificity protein kinase CLK2 (P49760 whole entry): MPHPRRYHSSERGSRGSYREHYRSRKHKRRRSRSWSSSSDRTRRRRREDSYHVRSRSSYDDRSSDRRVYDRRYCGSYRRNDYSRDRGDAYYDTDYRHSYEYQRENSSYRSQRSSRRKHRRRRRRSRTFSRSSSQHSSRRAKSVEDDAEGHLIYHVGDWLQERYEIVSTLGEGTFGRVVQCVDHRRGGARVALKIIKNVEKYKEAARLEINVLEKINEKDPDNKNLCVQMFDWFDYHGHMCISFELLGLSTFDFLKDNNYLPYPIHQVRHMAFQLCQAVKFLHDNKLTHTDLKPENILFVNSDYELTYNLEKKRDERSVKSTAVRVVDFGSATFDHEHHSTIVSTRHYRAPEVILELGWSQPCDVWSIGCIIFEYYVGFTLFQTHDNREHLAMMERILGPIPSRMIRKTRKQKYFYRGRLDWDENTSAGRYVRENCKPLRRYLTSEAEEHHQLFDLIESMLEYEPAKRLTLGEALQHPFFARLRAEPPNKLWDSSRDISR

| SMILES | IC50 (CDK8/Cyclin C) [µM] | CLint scaled at 1 µM [5] [mL/min/kg] | CLint scaled at 1 µM [8] [mL/min/kg] | CLint scaled at 1 µM [9] [mL/min/kg] | IC50 (MV4-11 [12]) [µM] | further results |
| --- | --- | --- | --- | --- | --- | --- |
| Cc1n[nH]c2ccc(-c3nnc(C(F)(F)F)n3Cc3ccc(Cl)cc3)cc12 | 0.00482 |  |  |  |  |  |
| Cc1n[nH]c2ccc(-c3nnc4n3[C@H](c3ccc(Cl)cc3)CC4)nc12 | 0.0009 | 270 | 339 | < 8.6 | 0.0117 | Kd [1]: 0.039 µM; Kd [2]: 0.071 µM; Vd [3]: 0.4 L/kg; Kd [4]: 1.3 µM; Kd [6]: 0.02 µM; Kd [7]: 0.064 µM; Kd [10]: 0.074 µM; Kd [11]: 0.46 µM; bioavailability [13]: 63.7% |
| CNc1n[nH]c2ccc(-c3nnc4n3C(c3ccc(Cl)cc3)CC4)cc12 (racemic) | 0.0054 |  |  |  |  |  |
| Cc1n[nH]c2ccc(-c3nnc(C)n3Cc3ccc(Cl)cc3)nc12 | 0.00329 |  |  |  |  |  |
| Cc1n[nH]c2ccc(-c3nnc4n3[C@H](c3ccc(Cl)cc3)CCC4)cc12 | 0.00037 |  | 843 | 87.1 |  |  |
| Cc1n[nH]c2ccc(-c3cnn(C)c3Cc3ccc(Cl)cc3)cc12 | 0.00071 |  | 536 | 59.2 |  |  |
| Cc1n[nH]c2ncc(-c3nnc4n3[C@H](c3ccc(Cl)cc3)CC4)cc12 | 0.0015 | 104 | 368 | < 8.6 | 0.0246 | Kd [1]: 0.0038 µM; Kd [2]: 0.086 µM; Vd [3]: 0.7 L/kg; Kd [4]: 2.1 µM; Kd [6]: 2.9 µM; Kd [7]: 0.082 µM; Kd [10]: 0.0065 µM; Kd [11]: 0.73 µM; bioavailability [13]: 63.4% |
| Cc1n[nH]c2ccc(-c3nnc4n3[C@H](c3ccc(Cl)cc3)CNC4)cc12 | 0.00048 |  | 1310 | 64.9 |  |  |
| Cc1n[nH]c2ccc(-c3nnn(C)c3Cc3ccc(Cl)cc3)cc12 | 0.0004 | 385 | 823 | 66.1 | 0.00475 |  |
| Cc1n[nH]c2ccc(-c3nnc(C)n3Cc3ccc(Cl)cc3)cc12 | 0.00049 | 54.4 | 342 | 12.2 | 0.0086 | Kd [1]: 0.056 µM; Kd [2]: 0.043 µM; Vd [3]: 0.8 L/kg; Kd [4]: 1.4 µM; Kd [6]: 1.8 µM; Kd [7]: 0.036 µM; Kd [10]: 0.12 µM; Kd [11]: 0.038 µM; bioavailability [13]: 82.1% |
| Cc1n[nH]c2ccc(-c3nnc4n3[C@H](c3ccc(Cl)cc3)COC4)cc12 | 0.00063 | 118 | 720 | 92 | 0.0076 | Vd [3]: 1.2 L/kg; bioavailability [13]: 19.4% |

Second part, led by results:

| IC50 (CDK8/Cyclin C) [µM] | CLint scaled at 1 µM [5] [mL/min/kg] | CLint scaled at 1 µM [8] [mL/min/kg] | CLint scaled at 1 µM [9] [mL/min/kg] | IC50 (MV4-11 [12]) [µM] | SMILES | further results |
| --- | --- | --- | --- | --- | --- | --- |
| 0.0829 |  |  |  |  | COc1nnc(-c2ccc3[nH]nc(C)c3c2)n1Cc1ccc(Cl)cc1 |  |
| 0.0357 |  |  |  |  | CNc1n[nH]c2ncc(-c3nnc4n3C(c3ccc(Cl)cc3)CC4)cc12 (racemic) |  |
| 0.0171 |  |  |  |  | Cc1n[nH]c2ncc(-c3nnc(C)n3Cc3ccc(Cl)cc3)cc12 |  |
| 0.0141 |  |  |  | 0.249 | Cc1c(Br)c(Br)c2c3c1nc(N1CCNCC1)n3CCC2 [SEL-120 FREE BASE] | inhibition in vivo at 60 mg/kg (MV4-11 [14]): 55.6% |
| 0.277 |  |  |  |  | Cc1n[nH]c2ccc(-c3nnc(C)n3C(C)c3ccc(Cl)cc3)cc12 (stereo not given) |  |
| 0.08 |  |  |  |  | Cc1n[nH]c2ccc(-c3nnc(C)n3Cc3ccc(Cl)cn3)cc12 |  |
| 0.0004 | 151 | 540 | 23.1 | 0.0024 | Cc1n[nH]c2ccc(-c3nnc4n3[C@H](c3ccc(Cl)cc3)CC4)cc12 | Kd [2]: 0.015 µM; Vd [3]: 0.7 L/kg; Kd [4]: 0.33 µM; Kd [6]: 0.068 µM; Kd [7]: 0.0021 µM; Kd [10]: 0.0043 µM; Kd [11]: 0.018 µM; bioavailability [13]: 63.7% |
| 0.00088 | 54.5 | 273 | 10.8 | 0.0728 | Cc1nnc(-c2ccc3[nH]nc(Cl)c3c2)n1Cc1ccc(Cl)cc1 | Vd [3]: 2.7 L/kg; bioavailability [13]: 50.8% |
| > 1 |  |  |  |  | Cc1n[nH]c2ccc(-c3nnc(O)n3Cc3ccc(Cl)cc3)cc12 |  |
| 0.00614 |  |  |  |  | Cc1n[nH]c2ccc(-c3nnc(C)n3Cc3ccc(C#N)cc3)cc12 |  |
| 0.00083 |  |  |  | 0.0062 | Cc1n[nH]c2ccc(-c3nnc4n3[C@H](c3ccc(Cl)cc3)CN(C)C4)cc12 |  |
| 0.00732 |  |  |  | 0.367 | Cc1n[nH]c2ccc(-c3ncc(C)n3Cc3ccc(Cl)cc3)cc12 |  |
